SMILES strings stand for the structures. pIC50: −log10 of the molar value.

The text below walks through data of patent publication US20070160657A1, “Targeting and intestinal-absorption controlled liposome having sugar chain and therapeutic drug for cancer and diagnostic drug containing the liposome” (National Institute of Advanced Industrial Science, priority 2003, published 2007).

One series relates to MRC5 cells. Briefly: Cytotoxicity of doxorubicin HCl incorporated in liposome, WST-8, normal human cells. The format is cell-based. The conditions noted are these: read-out: 50% growth inhibition concentration (IC50), 72 hours. As for the experimental part:
(§1) KG-1a cells established from an acute myeloid leukemia patient were used as human leukemia cells. KG-1a cells were cultured in RPMI 1640 medium containing 10% fetal bovine serum (hereinafter FBS). MRC5 cells established from normal fibroblastic cells were used as normal human cells, and cultured in MEM medium containing 10% FBS. Cell suspensions were prepared from these cells at the concentration of 10^5 cells/ml and distributed to 96 well plates at 10^4 cells/well. After 24 hours, free doxorubicin HCl, which was not incorporated in liposome (hereinafter free Dox), doxorubicin HCl incorporated in liposome on which sugar was not bonded (hereinafter L-Dox) and doxorubicin HCl incorporated in liposome on which sialyl Lewis X tetrasaccharide was bonded (hereinafter L-Dox-SLX) were added to each well at appropriate concentrations. […] After removing the media containing the anticancer drug, replacing with 100 μl of RPMI 1640 or MEM containing 10% WST-8 and 10% FBS and incubating for 3 hours, the quantitation of cells were carried out by measuring absorbance at 485 nm (using the absorbance at 550 nm as a reference). Kiling activity (%)=100−(absorbance of the well of interest at 485 nm−absorbance of the same well at 550 nm)/(absorbance of the untreated well at 485 nm−absorbance of the untreated well at 550 nm)×100. […]

The conditions of series [1]: blood; tail vein; amount administered 1.4 mg/kg; mice with EAT cancer.
Method: Ehrlich ascites tumor (EAT) cells (about 2×10^7 cells) were implanted subcutaneously into the right femoral region in male ddY mice (7 weeks of age), and the 50 mice were used in this test after the tumor tissues grew to 50 to 100 cubic mm (after 6 to 8 days).
These mice with cancer were separated into two groups, 25 mice per each group, and the mice in each group were injected with a liposome solution encapsulating having glycolipid type sugar chain and doxorubicin or free doxorubicin solution at a dose of 0.2 ml in tail vein after the tumor implant. Then, at various time intervals, the doxorubicin concentration was measured by fluorescent method (470 nm) in blood and tumor tissue of 5 mice from each group.
Another series deals with KG-1a cells. Briefly: Cytotoxicity of doxorubicin HCl incorporated in liposome, WST-8, human leukemia cells. The format is cell-based. The settings on record: read-out: 50% growth inhibition concentration (IC50); KG-1a human leukemia cells, 72 hours. As for the experimental part:
as §1
Background: Tetrazolium dyes change colour on reduction, which living cells bring about.

In series [2] the test system is Collagen type II induced arthritis (CIA) model. The experiment in a line: Treatment of RA (CIA) mice by oral administration. The format is in vivo, DBA/1J mouse. The conditions noted are these: oral 3 times a week, Day 28 to 39; free Pred 100 μg (up to Day 32), liposomes 10 μg per administration.
The test system is the same in series [3]. Briefly: Treatment of RA (CIA) mice by intravenous administration. The format is in vivo, DBA/1J mouse.
For series [4] the test system is unchanged. Briefly: Determination of suitable dose of predonisolone phosphate in RA (CIA) mice, intravenous. The format is in vivo, DBA/1J mouse.

As to `COc1cccc2c1C(=O)c1c(O)c3c(c(O)c1C2=O)C[C@@](O)(C(=O)CO)C[C@@H]3O[C@H]1C[C@H](N)[C@H](O)[C@H](C)O1.Cl` [free Dox, doxorubicin HCl], the results for the pIC50 in the series with MRC5 cells and with KG-1a cells were 5.08 and 6.74, respectively. For the same compound, the “AUC0→∞” value in series [1] was determined as 130 ± 10 µg·h/mL.

Regarding `C[C@]12C=CC(=O)C=C1CC[C@@H]1[C@@H]2[C@@H](O)C[C@@]2(C)[C@H]1CC[C@]2(O)C(=O)COP(=O)(O)O` [free Pred, predonisolone phosphate], the “Inflammatory Activity (IA), comparison between groups” value in series [2] was “no significant difference in IA”; in series [3] (iv twice a week, free Pred 100 μg, liposomes 10 μg per injection), “no clear difference from the Control group in IA”. Also, the “Inflammatory Activity (IA)” value in series [3] (Day 37 and afterward, iv 100 μg per injection, twice a week) was “about 50%”. The “Inflammatory Activity (IA) versus Control” value was “No significant difference” in series [4] (iv 250 μg per injection, 500 μg per week); “no increase in IA was observed and the progression of inflammation was suppressed” in series [4] (iv 500 μg per injection, 1000 μg per week). In series [4] (iv, more than 500 up to 1000 μg/week), the “Dose required to suppress the progression of inflammation” value is recorded as above 500 μg/week.
